EC50 data for five molecules are collected here from patent US20260007758A1, “SO[…]-2 RECEPTOR (SST2R) NON-PEPTIDE DRUG CONJUGATES AND USES THEREOF” (Crinetics Pharmaceuticals, Inc., priority 2024, published 2026).

pEC50: −log10 of the molar value.

Assay type in all cases: cell-based
Assay [1] addresses T1, human somatostatin receptor subtype 2 (Homo sapiens, UniProt P30874).
T1 construct: expressed in transfected cells
Put plainly: Functional assay for SSTR2 agonists (HTRF cAMP). Particulars: CHO-K1 cells stably expressing human SST2; NKH477-stimulated cAMP; 20 min at 37 C; read-out: hSST2 cAMP Avg EC50. In a few lines: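 CHO-K1 cells stably expressing human SSTR2 treated with compound (typically 0-10,000 nM final) for 20 min at 37 °C. Lysate cAMP measured by HTRF (665/620 nm ratio), converted via standard curve; EC50 from cAMP vs concentration.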
(TR-FRET usually uses a lanthanide donor and a delayed reading to cut background.)

In the next assay the target is T2, SST2 (Homo sapiens, UniProt P30874).
T2 construct: host or cells: PathHunter CHO-K1 SST2 cells
Put plainly: PathHunter CHO-K1 SST2 Internalization Assay. Particulars: PathHunter CHO-K1 SST2 cells; 90 min at 37 C; luminescence; read-out: Internalization EC50. The essentials:
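CHO-K1 cells expressing human SST2, 2500 cells/well, grown 48 h, then exposed 90 min at 37 C to 11-point 1:3 NDC dilutions (final top 10 uM). Beta-Glo luminescence after 60 min at room temperature; four-parameter IC50, duplicate mean, background-corrected.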

The test system of assay [2] is NCI-H524 human small cell lung cancer cells. The experiment in a line: H524 assay: inhibition of cell proliferation (CellTiter Glo). Particulars: 2 h treatment, washout, additional 70 h incubation. The essentials: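 NCI-H524 cells were exposed for 2 h to NDC in an 11-point two-fold series starting at 1 uM. The drug was then washed out and cells grew a further 70 h. CellTiter Glo luminescence gave % inhibition versus untreated control, and IC50 came from a four-parameter nonlinear regression.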
On the technique in general: In ATP-based viability assays light output follows the ATP content of the culture.

T1 sequence (P30874 whole entry): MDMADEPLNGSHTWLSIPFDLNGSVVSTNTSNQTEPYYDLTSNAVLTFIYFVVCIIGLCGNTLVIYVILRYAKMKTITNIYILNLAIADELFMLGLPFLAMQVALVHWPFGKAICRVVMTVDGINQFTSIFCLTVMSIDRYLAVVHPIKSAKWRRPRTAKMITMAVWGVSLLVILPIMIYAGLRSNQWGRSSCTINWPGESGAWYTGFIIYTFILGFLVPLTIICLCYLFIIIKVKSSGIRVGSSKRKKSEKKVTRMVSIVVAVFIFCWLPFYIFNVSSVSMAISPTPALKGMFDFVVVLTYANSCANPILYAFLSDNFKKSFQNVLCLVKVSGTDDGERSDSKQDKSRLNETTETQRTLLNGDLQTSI
T2 sequence (P30874 whole entry): as above

What is called pEC50 is the EC50 on a negative log10 scale, so that one unit is a factor of ten. On to `CC[C@H](C)[C@@H]([C@@H](CC(=O)N1CCC[C@H]1[C@H](OC)[C@@H](C)C(=O)N[C@H](C)[C@@H](O)c1ccccc1)OC)N(C)C(=O)[C@@H](NC(=O)[C@H](C(C)C)N(C)C(=O)OCc1ccc(NC(=O)[C@H](C)NC(=O)[C@@H](NC(=O)CCOCCC(=O)NCCNc2ncc(-c3cc(C)cc(F)c3)c(N3CC[C@H]4NCCO[C@@H]4C3)c2-c2nc3c(F)cc(F)cc3[nH]2)C(C)C)c(O[C@@H]2O[C@H](C(=O)O)[C@@H](O)[C@H](O)[C@H]2O)c1)C(C)C` [Compound 114], for which the negative logarithm of the EC50 (pEC50) in assay [1] is 7.07; at SST2 it was 6.07; in assay [2], 5.34.
Regarding `CC[C@H](C)[C@@H]([C@@H](CC(=O)N1CCC[C@H]1[C@H](OC)[C@@H](C)C(=O)N[C@H](C)[C@@H](O)c1ccccc1)OC)N(C)C(=O)[C@@H](NC(=O)[C@H](C(C)C)N(C)C(=O)OCc1ccc(NC(=O)[C@H](C)NC(=O)[C@@H](NC(=O)CCOCCC(=O)N(C)CC(=O)NCCNc2ncc(-c3cc(C)cc(F)c3)c(N3CCC(N)CC3)c2-c2nc3ccc(Cl)cc3[nH]2)C(C)C)c(O[C@@H]2O[C@H](C(=O)NCS(=O)(=O)O)[C@@H](O)[C@H](O)[C@H]2O)c1)C(C)C` [Compound 50], the pEC50 was 9.89 in assay [1], 8.17 at SST2 and 7.44 in assay [2].
For `CC[C@H](C)[C@@H]([C@@H](CC(=O)N1CCC[C@H]1[C@H](OC)[C@@H](C)C(=O)N[C@H](C)[C@@H](O)c1ccccc1)OC)N(C)C(=O)[C@@H](NC(=O)[C@H](C(C)C)N(C)C(=O)OCc1ccc(NC(=O)[C@H](CCCNC(N)=O)NC(=O)[C@@H](NC(=O)C[C@@H](N)C(=O)NCCOCCOCCOCCOCCC(=O)NCCNc2ncc(-c3cc(C)cc(F)c3)c(N3CCC(NC)CC3)c2-c2nc3ccc(Cl)cc3[nH]2)C(C)C)c(O[C@@H]2O[C@H](C(=O)O)[C@@H](O)[C@H](O)[C@H]2O)c1)C(C)C` [Compound 122], in that order: 9.72, 8.06 and 7.57.
Regarding `CC[C@H](C)[C@@H]([C@@H](CC(=O)N1CCC[C@H]1[C@H](OC)[C@@H](C)C(=O)N[C@H](C)[C@@H](O)c1ccccc1)OC)N(C)C(=O)[C@@H](NC(=O)[C@H](C(C)C)N(C)C(=O)OCc1ccc(NC(=O)[C@H](CCCNC(N)=O)NC(=O)[C@@H](NC(=O)[C@H](CCCO)NC(=O)CCOCCC(=O)NCCNc2ncc(-c3cc(C)cc(F)c3)c(N3CCC(N)CC3)c2-c2nc3cc(Cl)ccc3[nH]2)C(C)C)c(O[C@@H]2O[C@H](C(=O)NCC(=O)O)[C@@H](O)[C@H](O)[C@H]2O)c1)C(C)C` [Compound 219], the values for the pEC50 (in assay [1]; at SST2; in assay [2]) were 10.00, 8.57 and 8.12, respectively.
For `CC[C@H](C)[C@@H]([C@@H](CC(=O)N1CCC[C@H]1[C@H](OC)[C@@H](C)C(=O)N[C@H](C)[C@@H](O)c1ccccc1)OC)N(C)C(=O)[C@@H](NC(=O)[C@H](C(C)C)N(C)C(=O)OCc1ccc(NC(=O)[C@H](CCCNC(N)=O)NC(=O)[C@@H](NC(=O)CCOCCC(=O)NCCNc2ncc(-c3cc(C)cc(F)c3)c(N3CCC(N)CC3)c2-c2nc3ccc(Cl)cc3[nH]2)C(C)C)c(O[C@@H]2O[C@H](C(=O)NCCCCCNC(=O)CCCCc3ccc(I)cc3)[C@@H](O)[C@H](O)[C@H]2O)c1)C(C)C` [Compound 225], in that order: 9.59, 8.72 and 7.74.
